Source: patent US8507411B2, “Neoglycorandomization and digitoxin analogs” (priority 2004, dated 2013)
Read-outs that look alike come from different tables or passages of the source.

What was measured:
Du145 = assay: High-throughput calcein AM cytotoxicity assay, Du145; format: cell-based, human; details: Du145 cells
Description: (§1) Standard errors are depicted with error bars.

MCF7 = assay: High-throughput calcein AM cytotoxicity assay, MCF7; format: cell-based, human; details: MCF7 cells
Description: as §1

HCT-116 = assay: High-throughput calcein AM cytotoxicity assay, HCT-116; format: cell-based, human; details: HCT-116 cells
Description: as §1

Hep3B = assay: High-throughput calcein AM cytotoxicity assay, Hep3B; format: cell-based, human; details: Hep 3B cells
Description: as §1

NCI-H460 = assay: High-throughput calcein AM cytotoxicity assay, NCI-H460; format: cell-based, human; details: NCI-H460 cells
Description: as §1

A549 = assay: High-throughput calcein AM cytotoxicity assay, A549; format: cell-based, human; details: A549 cells
Description: as §1

NCI/ADR-RES = assay: cells; format: cell-based, human; details: NCI/ADR-RES cells
Description: (§2) In the assay, live cells were distinguished by the presence of a ubiquitous intracellular enzymatic activity which converts the non-fluorescent cell-permeable molecule calcein AM to the intensely fluorescent molecule calcein, which is retained within live cells. The IC50 value for each library member represents at least six replicates of dose-response experiments conducted over five concentrations using two-fold dilutions. […] Standard errors are depicted with error bars. Numerical values and corresponding error values can be found in Table 4. Du145: […]; MCF7: human breast carcinoma; HCT-116: human colon carcinoma, Hep3B: human liver carcinoma; SF-268: human CNS glioblastoma; SK-OV-3: human ovary adenocarcinoma; NCI-H460: human lung carcinoma; A549: human lung adenocarcinoma; NCI/ADR-RES: human breast carcinoma; NmuMG: mouse mammary normal epithelial.
(§3) Cell Culture: All cell lines except NmuMG were maintained in RPMI 1640 medium from InVitrogen (Cat No. 11875-085) supplemented with 10% w/v fetal bovine serum (FBS) from ICN (Cat No. 2916154) and penicillin-streptomycin (PS) (100 U/mL and 100 μg/mL) from InVitrogen (Cat No. 15140-122). NmuMG cells were maintained in DMEM medium from InVitrogen (Cat No. 11965-084) supplemented with 10% w/v fetal bovine serum (FBS) from ICN (Cat No. 2916154), 10 μg/ml insulin (InVitrogen Cat No 12585-014), and penicillin-streptomycin (PS) (100 U/mL and 100 μg/mL) from InVitrogen (Cat No. 15140-122). Cells were harvested by trypsinization using 0.25% w/v trypsin and 0.1% w/v EDTA from InVitrogen (Cat No. 15-050-057) and then counted in a hemocytometer in duplicate with better than 10% agreement in field counts. Cells were plated at a cell density of 10,000-15,000 cells/well of each Corning Costar 96-well black tissue culture treated microtiter plate (Fisher Cat No. 07-200-627). Cells were grown for 1 h at 37° C., with 5% CO2 in a humidified incubator to allow cell attachment to occur before compound addition.
(§4) Library Member Handling and Preparation for Cytotoxicity Assays: Library members were stored at −20° C. under dessicating conditions before the assay. Library member stocks (100×) were prepared in Corning Costar polypropylene 96-well V-bottom polypropylene microtiter plates (Fisher Cat No. 07-200-695). Five serial 1:2 dilutions were made with anhydrous DMSO at 100× the final concentration used in the assay.
(§5) Library Member Addition: The library member-containing plates were diluted 1:10 with complete cell culture media. The 10× stocks (10 μL) were added to the attached cells using a Biomek FX liquid handler (Beckman-Coulter). Library member stocks (10 μL) were added to 90 μL of cells in each plate to insure full mixing of stocks with culture media using a Beckman FX liquid handler with 96-well head.
(§6) Determination of Cytotoxicity: Cells were incubated with the library members for 72 h before fluorescence reading. Test plates were removed from the incubator and washed 1× in sterile PBS to remove serum containing calcium esterases. Calcein AM reagent (30 μL, […]) was added and the cells were incubated for 30 min at 37° C. Plates were read for emission using a fluorescein filter (excitation 485 nm, emission 535 nm).
(§7) IC50 Calculation: For each library member, at least six dose response experiments were conducted. […] To calculate IC50, percent inhibitions were plotted as a function of log [concentration] and then fit to a four-parameter logistic model that allowed for a variable Hill slope using XLfit 4.1.
(§8) Cytotoxicity Assays. All cell lines except NmuMG were maintained in RPMI 1640 medium supplemented with 10% w/v fetal bovine serum (FBS) and penicillin-streptomycin (PS) (100 U/mL and 100 μg/mL).

SF-268 = assay: cells; format: cell-based, human; details: SF-268 cells
Description: as §2, §3, §4, §5, §6, §7, §8

SK-OV-3 = assay: cells; format: cell-based, human; details: SK-OV-3 cells
Description: as §2, §3, §4, §5, §6, §7, §8

NmuMG = assay: cells; format: cell-based, mouse
Description: as §2, §3, §4, §5, §6, §7, §8

[1] = NmuMG cells (mouse mammary normal epithelial control line), read-out: IC50
[2] = NmuMG mouse mammary normal epithelial control line, read-out: IC50, NmuMG

Compound | IC50 (Du145; read-out: IC50) [µM] | IC50 (MCF7; read-out: IC50) [µM] | IC50 (HCT-116; read-out: IC50) [µM] | IC50 (Hep3B; read-out: IC50) [µM] | IC50 (NCI-H460; read-out: IC50) [µM] | IC50 (A549; read-out: IC50) [µM] | IC50 (NCI/ADR-RES; read-out: IC50) [µM] | IC50 (SF-268; read-out: IC50) [µM] | IC50 (SK-OV-3; read-out: IC50) [µM] | IC50 (NmuMG; [1]) [µM] | IC50 (Du145; read-out: IC50, Du145) [µM] | IC50 (MCF7; read-out: IC50, MCF7) [µM] | IC50 (HCT-116; read-out: IC50, HCT-116) [µM] | IC50 (Hep3B; read-out: IC50, Hep 3B) [µM] | IC50 (NCI-H460; read-out: IC50, NCI-H460) [µM] | IC50 (A549; read-out: IC50, A549) [µM] | IC50 (NCI/ADR-RES; read-out: IC50, NCI/ADR-RES) [µM] | IC50 (SF-268; read-out: IC50, SF-268) [µM] | IC50 (SK-OV-3; read-out: IC50, SK-OV-3) [µM] | IC50 (NmuMG; [2]) [µM]
6-deoxy-6-azido-D-mannoside [41α] | > 25 | > 25 | > 25 | > 25 | > 25 | > 25 | > 25 | > 25 | > 25 | > 25 | – | – | – | – | – | – | – | – | – | –
6-keto-D-galactoside [31α] | – | – | – | – | – | – | – | – | – | > 25 | > 25 | > 25 | > 25 | > 25 | > 25 | > 25 | > 25 | > 25 | > 25 | –
6-keto-D-galactoside [31β] | – | – | – | – | – | – | – | – | – | – | 1.5 | 9 | 3.1 | 3.1 | 2.4 | 2.3 | 1 | 8 | 2.9 | > 25
CON(C1CCC2(C)C(CCC3C2CCC2(C)C(C4=CC(=O)OC4)CCC32O)C1)C1OCC(O)C(O)C1O [5α, L-riboside] | – | – | – | – | – | – | – | – | – | – | > 25 | > 25 | > 25 | > 25 | > 25 | > 25 | > 25 | > 25 | > 25 | > 25
CON(C1CCC2(C)C(CCC3C2CCC2(C)C(C4=CC(=O)OC4)CCC32O)C1)C1OCC(O)C(O)C1O [6α, D-riboside] | – | – | – | – | – | – | – | – | – | – | > 25 | > 25 | > 25 | > 25 | > 25 | > 25 | > 25 | > 25 | > 25 | > 25
CON([C@H]1CC[C@@]2(C)[C@H](CC[C@@H]3[C@@H]2CC[C@]2(C)[C@@H](C4=CC(=O)OC4)CC[C@]32O)C1)[C@@H]1OC[C@@H](O)[C@@H](O)[C@H]1O [6β, D-riboside] | – | – | – | – | – | – | – | – | – | – | 0.72 | 3 | 1.3 | 0.9 | 0.9 | 1.02 | 0.66 | 1.8 | 1.7 | 0.48
CON(C1CCC2(C)C(CCC3C2CCC2(C)C(C4=CC(=O)OC4)CCC32O)C1)C1OC(C)C(O)C(O)C1O [7α, L-fucoside] | – | – | – | – | – | – | – | – | – | – | > 25 | > 25 | > 25 | > 25 | > 25 | > 25 | > 25 | > 25 | > 25 | > 25
CON([C@H]1CC[C@@]2(C)[C@H](CC[C@@H]3[C@@H]2CC[C@]2(C)[C@@H](C4=CC(=O)OC4)CC[C@]32O)C1)[C@H]1O[C@@H](C)[C@@H](O)[C@@H](O)[C@@H]1O [7β, L-fucoside] | – | – | – | – | – | – | – | – | – | – | 0.7 | 1.3 | 1.2 | 0.35 | 0.6 | 0.3 | 0.25 | 0.9 | 0.5 | > 25
CON(C1CCC2(C)C(CCC3C2CCC2(C)C(C4=CC(=O)OC4)CCC32O)C1)C1OC(C)C(O)C(O)C1O [8α, D-fucoside] | – | – | – | – | – | – | – | – | – | – | > 25 | > 25 | > 25 | > 25 | > 25 | > 25 | > 25 | > 25 | > 25 | > 25
CON([C@H]1CC[C@@]2(C)[C@H](CC[C@@H]3[C@@H]2CC[C@]2(C)[C@@H](C4=CC(=O)OC4)CC[C@]32O)C1)[C@@H]1O[C@H](C)[C@H](O)[C@H](O)[C@H]1O [8β, D-fucoside] | – | – | – | – | – | – | – | – | – | – | 3.9 | 11 | 7 | 4.9 | 1.3 | 1.8 | 1.5 | 10 | 5 | > 25
CON(C1CCC2(C)C(CCC3C2CCC2(C)C(C4=CC(=O)OC4)CCC32O)C1)C1CC(O)C(O)C(CO)O1 [9α, 2-deoxy-D-galactoside] | – | – | – | – | – | – | – | – | – | – | > 25 | > 25 | > 25 | > 25 | > 25 | > 25 | > 25 | > 25 | > 25 | > 25
CON([C@H]1CC[C@@]2(C)[C@H](CC[C@@H]3[C@@H]2CC[C@]2(C)[C@@H](C4=CC(=O)OC4)CC[C@]32O)C1)[C@H]1C[C@@H](O)[C@@H](O)[C@@H](CO)O1 [9β, 2-deoxy-D-galactoside] | – | – | – | – | – | – | – | – | – | – | 7 | 5.1 | 10 | 3.6 | 2 | 1.3 | 0.9 | 8 | 4 | > 25
CON(C1CCC2(C)C(CCC3C2CCC2(C)C(C4=CC(=O)OC4)CCC32O)C1)C1OCC(O)C(O)C1O [23α, L-xyloside] | – | – | – | – | – | – | – | – | – | – | > 25 | > 25 | > 25 | > 25 | > 25 | > 25 | – | – | – | –
CON(C1CCC2(C)C(CCC3C2CCC2(C)C(C4=CC(=O)OC4)CCC32O)C1)C1OCC(O)C(O)C1O [24α, D-xyloside] | – | – | – | – | – | – | – | – | – | – | > 25 | > 25 | > 25 | > 25 | > 25 | > 25 | – | – | – | –
CON(C1CCC2(C)C(CCC3C2CCC2(C)C(C4=CC(=O)OC4)CCC32O)C1)C1OC(CO)C(OC2OC(CO)C(O)C(O)C2O)C(O)C1O (stereo not drawn) [36β, lactoside] | – | – | – | – | – | – | – | – | – | – | – | > 25 | > 25 | 26 | > 25 | 24 | 13 | > 25 | 19 | > 25
CON(C1CCC2(C)C(CCC3C2CCC2(C)C(C4=CC(=O)OC4)CCC32O)C1)C1OC(CO)C(OC2OC(CO)C(O)C(O)C2O)C(O)C1O (stereo not drawn) [37α, maltoside] | > 25 | – | – | > 25 | – | > 25 | > 25 | – | > 25 | > 25 | – | – | – | – | – | – | – | – | – | –
CON(C1CCC2(C)C(CCC3C2CCC2(C)C(C4=CC(=O)OC4)CCC32O)C1)C1OC(CO)C(OC2OC(CO)C(O)C(O)C2O)C(O)C1O (stereo not drawn) [37β, maltoside] | – | – | – | – | – | – | – | – | – | – | 4.4 | > 25 | 24 | 7 | 6.1 | 4.4 | 4.4 | 6 | 5 | –
